In publication PMC4404097, “The Inhibitory Effects of Ca^2+ Channel Blocker Nifedipine on Rat Kv2.1 Potassium Channels” (PLoS ONE, 2015) one finds IC50 data, which are given here for one molecule.

Molecules are shown by their SMILES. Where a chain is given by its changes, count along the chain named.

As a reminder, the IC50 is the concentration that gives 50% inhibition. Read a high IC50 as weaker potency in that assay.

Test [1] has as its target T1, rat Kv2.1 (Rattus norvegicus, UniProt P15387, Y380R).
T1 construct: gene Kcnb1; rat Kv2.1 subcloned in pEYFP-N1 (XhoI/EcoRI); homotetramer
T1 sequence (P15387 1-857 Y380R): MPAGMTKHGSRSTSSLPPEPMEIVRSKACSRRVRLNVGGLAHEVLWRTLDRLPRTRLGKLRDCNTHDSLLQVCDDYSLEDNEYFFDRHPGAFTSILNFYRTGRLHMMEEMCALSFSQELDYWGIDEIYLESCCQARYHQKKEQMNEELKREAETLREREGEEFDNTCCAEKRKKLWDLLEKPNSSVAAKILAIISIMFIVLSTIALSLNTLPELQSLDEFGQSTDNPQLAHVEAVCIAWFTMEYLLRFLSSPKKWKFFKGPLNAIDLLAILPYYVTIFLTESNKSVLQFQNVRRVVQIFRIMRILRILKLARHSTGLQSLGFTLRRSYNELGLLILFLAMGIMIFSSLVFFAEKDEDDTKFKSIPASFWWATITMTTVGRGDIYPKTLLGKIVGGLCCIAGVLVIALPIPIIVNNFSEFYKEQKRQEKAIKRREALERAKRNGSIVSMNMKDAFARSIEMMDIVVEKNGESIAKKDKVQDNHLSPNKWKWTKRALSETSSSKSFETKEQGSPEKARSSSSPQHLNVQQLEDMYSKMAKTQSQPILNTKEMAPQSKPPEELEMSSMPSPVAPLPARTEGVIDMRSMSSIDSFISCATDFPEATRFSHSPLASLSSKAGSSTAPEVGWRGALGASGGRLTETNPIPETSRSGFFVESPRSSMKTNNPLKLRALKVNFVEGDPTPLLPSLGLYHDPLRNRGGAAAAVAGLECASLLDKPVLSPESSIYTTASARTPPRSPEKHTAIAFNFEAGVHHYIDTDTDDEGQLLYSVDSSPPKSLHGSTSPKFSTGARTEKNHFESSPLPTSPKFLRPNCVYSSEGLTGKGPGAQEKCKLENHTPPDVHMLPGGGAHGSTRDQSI
Nature of the test: whole-cell patch clamp, Hill fit of concentration-response. Format: cell-based. In general terms: In patch-clamp work, channel activity is measured electrically.

Test [2] addresses T2, rat Kv2.1 (Rattus norvegicus, UniProt P15387).
T2 construct: gene Kcnb1; rat Kv2.1 subcloned in pEYFP-N1 (XhoI/EcoRI); homotetramer
T2 sequence (P15387 1-857): T1 sequence (P15387 1-857 Y380R) with R380Y
The test is described as above. It is filed as cell-based.

Turning to `COC(=O)C1=C(C)NC(C)=C(C(=O)OC)C1c1ccccc1[N+](=O)[O-]` [nifedipine], the results for the IC50 against rat Kv2.1 [1] and against rat Kv2.1 [2] were 15.2 ± 1.3 µM and 37.5 ± 5.7 µM, respectively.
